The values that follow come from patent US20070025914A1, “Bronchioalveolar stem cells and uses thereof” (priority 2005, published 2007).

Values joined by “and” are separate entries in the source; they are usually repeats but may differ in a detail not shown here. Identical values can stand only once.

In series [1] the test system is BASCs. The experiment in a line: BrdU proliferation at the BADJ after naphthalene. To be noted: all SP-Cpos CCApos. In kind it is in vivo, mouse.
The next series concerns Lox-K-ras lung tumors. The experiment in a line: Naphthalene treatment before AdCre in LSL-K-ras G12D mice: tumor number and area. To be noted: 6 weeks, three independent experiments, p=0.04. In kind it is in vivo, mouse. The method, then: We reasoned that the cellular requirements for adenocarcinoma formation could be dissected further by combining K-ras G12D activation with naphthalene treatment, which stimulates proliferation of BASCs in vivo (see FIG. 2). LSL-K-ras G12D mice and wild-type controls were treated with naphthalene; tumorigenesis was initiated by administering AdCre 24 hr to 3 days later, and mice were euthanized after 6 weeks to determine tumor incidence and size.
An even greater impact on tumor area was associated with naphthalene treatment; adenomas comprised a 6-, 12-, and 15-fold greater proportion of total lung area when initiated after airway damage in the three experiments (p=0.009; FIG. 7B).

A further series deals with AT2 cells. Briefly: AdGFP infection followed by IF for SP-C or CCA after naphthalene. Conditions: 24 hr after AdGFP; control 7.8%; no significant increase. In kind it is in vivo, mouse. The text has this: FIG. 7A). An even greater impact on tumor area was associated with naphthalene treatment; adenomas comprised a 6-, 12-, and 15-fold greater proportion of total lung area when initiated after airway damage in the three experiments (p=0.009; FIG. 7B).

The test system of series [2] is BASCs. The experiment in a line: BASC number per terminal bronchiole by dual IF for CCA and SP-C after naphthalene treatment.
Experimental: To determine if airway damage affects BASCs, dual IF for CCA and SP-C is performed at various time points after naphthalene treatment. […] BrdU administered prior to euthanasia is used to determine if BASCs proliferate in response to naphthalene.
Lox-stop-lox K-ras G12D mice (Jackson et al. (2001) Genes Dev. 15, 3243-3248) and wild-type littermates were maintained in viral-free conditions on an F1 129 SvJ/C57BI6 background. Four- to eight-week-old mice were used for FACS or intranasal infections as described (Jackson et al. (2001) Genes Dev. 15, 3243-3248). Naphthalene (Aldrich) was dissolved in MAZOLA corn oil and injected i.p. at 275 mg/kg using sex- and background-matched control mice. […] 30 mg/kg BrdU in PBS was injected i.p. 2 hr before euthanasia for proliferation studies. Tissue preparation was as described (Jackson et al., 2001, supra). BASCs were quantified by scoring sections from at least three mice for each condition.
In series [3] the test system is BASCs (Sca-1pos CD45neg Pecamneg cells). Briefly: FACS analysis of BASC abundance after naphthalene treatment. In kind it is in vivo, mouse.
Series [4] relates to BASCs. Briefly: BASC incidence after intranasal bleomycin. In kind it is in vivo, mouse. The method, then:
Bleomycin is administered intranasally, and at various time points after treatment, the incidence of BASCs is determined.

For `c1ccc2ccccc2c1` [naphthalene, Naphthalene], in the series with BASCs [1], the “time at which BrdUpos cells are first detected in the BADJ” value stood at 52 h. In the series with Lox-K-ras lung tumors, the “fold more tumors vs controls (corn oil, AdCre)” value was 1.3 fold and 2.2 fold and 2.3 fold. Moreover, in the series with AT2 cells, the “infected (GFPpos) cells that were SP-Cpos” value was 10.5%. Moreover, the “terminal bronchioles with two or more BASCs” value in the series on BASCs [2] (1 week after naphthalene 275 mg/kg i.p., controls 16%±5%, p=0.03) is recorded as 30%±9%. The “number of BASCs after naphthalene” value in the series with BASCs [2] (any time point after naphthalene) is recorded as “did not significantly decrease”. Moreover, in the series on BASCs [2] (by 52 hr after naphthalene), the Clara cell loss entry was “significant Clara cell loss”. In the series with BASCs [2] (six to seven weeks after naphthalene), the “number of BASCs per BADJ” value is “comparable to that in untreated lung”. Besides, the “abundance of BASCs, fold increase vs corn oil control” value in series [3] (1 week after treatment, p=0.04) is listed as 1.3 fold. In addition, the “abundance of BASCs” value in series [3] (24 hr after naphthalene) is “did not change”.

On to Bleomycin, for which the BASC distribution result in the series with BASCs [4] (7 days after bleomycin) and in the series on BASCs [4] (28 days after bleomycin) was “significantly different neither” in each case. Further, the BASC numbers entry in the series on BASCs [4] (14 days after bleomycin, p=0.01) is “Significant increases”.
